Source: patent US20100298348A1, “Method of Decreasing Ubiquitylated Protein Levels” (priority 2009, published 2010)

How the values were obtained:
BACE1 = assay: Western blot of BACE in 3xTg-AD mouse brain; format: in vivo; details: 3xTg-AD mice ~12 months old, 5 mg/kg/day, 2 months
Protocol: (§1) APP C-terminal fragments C99 and C83 are created by beta-secretase and alpha-secretase cleavage respectively. The reduction of both C99 and C83 induced by ST101 could therefore be due to reduction or inhibition of secretases. This hypothesis was tested using Western blots of brain extracts from 3xTg-AD mice from the initial experiment in 12-month-old animals treated with ST101 for 2 months. The only beta-secretase is BACE1 and the constitutive alpha-secretase is ADAM10.
(§2) Western blots were probed with antibodies against BACE1 and ADAM10. FIG. 11A is a series of Western blots depicting levels of proADAM10, ADAM10, proBACE, BACE, Presenilinl and APP-CFTs in brain extracts from ST101 treated 3×TG-AD mice (S) versus control mice (C). C: control brain extract. S: ST101-treated brain extract. Animals were approximately 12 months old at sacrifice after 2 months of treatment with ST101 at 5 mg/kg/day.

ADAM10 = assay: Western blot of ADAM10 in 3xTg-AD mouse brain; format: in vivo; details: 3xTg-AD mice ~12 months old, 5 mg/kg/day, 2 months
Protocol: as §1, §2

ADAM17 (TACE) = assay: Western blot of TACE in 3xTg-AD mouse brain; format: in vivo; details: 3xTg-AD mice ~14.5 months old, 5 mg/kg/day in drinking water, 2 months as printed
Protocol: In addition to ADAM10, ADAM17 (TACE, which is Tumor Necrosis Factor converting enzyme) is known to act as an alpha-secretase of APP. Thus, it was tested in a Western blot whether ST101 reduces levels of ADAM17 (TACE).
The Western blot was obtained using a TACE specific antibody in brain extracts from ST101 treated 3×TG-AD mice (S) versus control mice (C). Animals were approximately 14.5 months old at sacrifice after 2 months of treatment with ST101 at 5 mg/kg/day in drinking water.

Aβ42 = assay: Sandwich ELISA of Aβ42 in cynomolgus monkey hippocampal lysates, 9-month study; format: in vivo; details: male cynomolgus monkeys, 9 months oral
Protocol: Male cynomolgus monkeys were treated for 9 months with 0, 10, 30 or 100 mg/kg/day ST101 with once daily oral drug administration. Hippocampal brain samples were analyzed in Western blots and ELISAs for APP fragments and Aβ. […] Reductions in a ˜55-kDa fragment were also seen with treatment in these groups. Black outlines depict image level enhancement in Adobe Photoshop CS4, to better visualize weak signals. […] However, long exposures reveal the presence of the 17-kDa APP fragment only in treated monkeys (antibody CT20, Calbiochem). This fragment was not detected in either the 30 or 10 mg/kg/day ST101 groups. Error bars indicate SEM (standard error of the mean) and * indicates statistical significance versus control (p<0.05). (S: ST101-treated animals, versus C: control animals).

ubiquitylated proteins = assay: Anti-ubiquitin Western blot of C57/B6 wildtype mouse brain; format: in vivo; details: C57/B6 wildtype mice, 5 mg/kg/day in drinking water, 2 months
Protocol: Brain extracts from 2 month-old C57/B6 wildtype mice that had been treated with ST101 at 5/mg/kg/day in drinking water over 2 months were analyzed in Western blots using an anti-ubiquitin antibody (Dako no. Z0448).

proteasome = assay: Western blot of proteasome subunits in brain extracts; format: in vivo, mouse; details: 12-month-old 3xTg-AD mice, 5 mg/kg/day, 2 months
Protocol: Brain extracts from 12-month-old 3xTg-AD mice (described in Example 15) that had been treated with ST101 at 5/mg/kg/day in drinking water over 2 months were analyzed in Western blots using an anti-proteasome alpha-subunit antibody.

O=C1N=C2C=CC=CN2C12Cc1ccccc1C2 [ST101, spiro(imidazo[1,2-a]pyridin-2(3H)-one-3,2′-indan)]
BACE protein level (BACE1): profound reduction | Pro-BACE protein level (BACE1): not significantly affected | ADAM-10 protein level (ADAM10): not significantly affected | pro-ADAM10 protein level (ADAM10): profound reduction | TACE levels (ADAM17 (TACE)): reduction of TACE levels in the majority of ST101 treated animals | Aβ42 in hippocampal lysates (Aβ42; 10 mg/kg/day): significant increases | Aβ42 in hippocampal lysates (Aβ42; 30 mg/kg/day): significant decreases | Aβ42 in hippocampal lysates (Aβ42; 100 mg/kg/day): significant decreases | ubiquitylated proteins (ubiquitylated proteins): modest reduction | concentration of proteasome alpha subunits (proteasome): No difference is apparent | high molecular weight bands reactive with proteasome alpha-subunit antibody (proteasome): clear decrease | proteasome subunit beta 2i (proteasome): did not reveal changes | proteasome subunit beta 5i (proteasome): did not reveal changes
